The assay relates to HBV viral production from HepAD38 cells. Put plainly: Activity of test compounds on viral production from HepAD38 cells (viral load by qPCR of HBV core sequence in supernatant). It counts as cell-based. The note with it: Hepatitis B virus, 120 h, 5 days incubation, HBV DNA in supernatant by qPCR, top concentration 10 μM, read-out: Viral Load EC50 Activity range. The method in brief: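 HepAD38 cells, 50,000/well in tetracycline-free 2% FBS medium, treated 5 days at 37° C. with compound from 10 μM top concentration. HBV DNA in supernatant quantified by TaqMan qPCR of core sequence against DNA standards, relative to DMSO wells; CellTiter-Glo viability read in parallel. EC50/CC50 from four-parameter logistic fit.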

This passage reports EC50 results from patent publication US11078170B2 (Assembly Biosciences, Inc., priority 2017, dated 2021).

A word on the EC50: it is the concentration that produces a half-maximal response. On to `CN1[C@@H](C(=O)Nc2ccc(F)c(Cl)c2)C[C@@H](c2ccc(-c3cncs3)s2)NS1(=O)=O` [HBV-CSU-268-ISO-II, Cis-N-(3-Chloro-4-fluorophenyl)-2-methyl-5-(5-(thiazol-5-yl)thiophen-2-yl)-1,2,6-thiadiazinane-3-carboxamide 1,1-dioxide], for which the EC50 was above 5 µM.
